Laboratory results: patent US20230141887A1, “CRYSTAL FORM OF DIAZASPIROPYRAN COMPOUND” (MEDSHINE DISCOVERY INC., priority 2020, published 2023)

Key:
[1] = target: T1, FLT3 (Homo sapiens, UniProt P36888); test: Assay of FLT3 inhibitory activity in vitro (Promega FLT3 Kinase Enzyme System, ADP-Glo); assay type: biochemical; settings: 50 μmol/L ATP, 30° C., 120 minutes
T1 construct: purchased Promega
Protocol: The assay was carried out in duplicate. […] After the reaction was completed, 5 μL of ADP-Glo reagent was added to each well. The system was further reacted at 30° C. for 40 minutes. After the reaction was completed, 10 μL of kinase detection reagent was added to each well and reacted at 30° C. for 30 minutes. The chemiluminescence was then read by the PerkinElmer Envision multi-label analyzer with an integration time of 0.5 seconds.
The original data was converted into an inhibition rate, and the IC50 value can be obtained by four-parameter curve fitting.

[2] = target: T2, FLT3(D835H) (Homo sapiens, UniProt P36888, D835H); assay type: binding
T2 sequence (P36888 27-993 D835H): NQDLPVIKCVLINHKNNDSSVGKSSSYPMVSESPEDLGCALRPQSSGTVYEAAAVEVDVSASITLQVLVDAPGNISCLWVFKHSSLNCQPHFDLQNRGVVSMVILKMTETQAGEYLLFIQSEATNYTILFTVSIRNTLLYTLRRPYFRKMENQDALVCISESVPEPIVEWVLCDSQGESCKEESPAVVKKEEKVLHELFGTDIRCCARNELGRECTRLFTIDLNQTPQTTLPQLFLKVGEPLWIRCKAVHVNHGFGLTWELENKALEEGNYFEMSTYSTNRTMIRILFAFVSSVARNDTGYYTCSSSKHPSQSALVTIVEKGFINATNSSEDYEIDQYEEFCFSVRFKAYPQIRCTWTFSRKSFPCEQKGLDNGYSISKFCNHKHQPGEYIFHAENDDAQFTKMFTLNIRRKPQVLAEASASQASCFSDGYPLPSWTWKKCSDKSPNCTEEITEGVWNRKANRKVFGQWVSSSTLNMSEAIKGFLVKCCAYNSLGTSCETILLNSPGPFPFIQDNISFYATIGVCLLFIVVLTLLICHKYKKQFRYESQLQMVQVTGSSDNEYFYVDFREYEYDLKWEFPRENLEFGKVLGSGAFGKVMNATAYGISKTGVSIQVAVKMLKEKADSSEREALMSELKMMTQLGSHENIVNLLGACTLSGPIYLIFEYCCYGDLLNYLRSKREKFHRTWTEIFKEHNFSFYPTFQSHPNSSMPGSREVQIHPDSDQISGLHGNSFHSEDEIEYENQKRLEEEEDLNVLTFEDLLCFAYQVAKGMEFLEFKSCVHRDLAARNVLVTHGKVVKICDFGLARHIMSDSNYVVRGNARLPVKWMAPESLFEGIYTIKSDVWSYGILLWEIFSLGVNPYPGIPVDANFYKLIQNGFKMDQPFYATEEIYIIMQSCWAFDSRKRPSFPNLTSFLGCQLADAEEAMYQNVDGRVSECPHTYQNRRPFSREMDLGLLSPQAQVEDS
Protocol: The assay was carried out using KINOMEscan™ technology. The assay compounds were stored in 100% DMSO. The assay was carried out by means of 3-fold dilution and 11-point fitting. All compounds used for Kd determination were dispersed by ultrasound, then directly diluted and tested. All reactions were carried out in a 384-well polypropylene plate. Each portion has a final volume of 0.02 ml. The plate was incubated with shaking at room temperature for 1 hour, and then processed. The kinase concentration in the eluent was finally determined by qPCR method. Kd was obtained by fitting.

[3] = In vivo pharmacokinetic assay in mice; set-up: species or system CD-1 male mice
Protocol: CD-1 male mice aged 7 to 10 weeks were selected. The doses for intravenous and oral administration were 1 mg/kg and 2.5 mg/kg, respectively. The mice were fasted for at least 12 hours before the administration, and resumed feeding 4 hours after the administration. The mice had free access to water throughout the assay period.
On the day of the assay, the animals in the intravenous group were administrated the corresponding compound through a single injection in the tail vein at an administration volume of 5 mL/kg; the oral group were administrated the corresponding compound through a single intragastric gavage at an administration volume of 10 mL/kg. The animals were weighed before administration, and the administration volume was calculated based on the body weight. The time for collecting samples was: 0.083 (the injection group), 0.25, 0.5, 1, 2, 4, 8, 24 h. About 30 μL of whole blood was collected from the saphenous vein at each time point to prepare plasma for concentration determination by high-performance liquid chromatography-tandem mass spectrometry (LC-MS/MS). All animals were euthanized by CO2 anesthesia after collecting the PK samples at the last time point. The plasma concentrations were processed by non-compartmental model of WinNonlin™ Version 6.3 (Pharsight, Mountain View, Calif.) pharmacokinetic software, and the pharmacokinetic parameters were calculated by the linear logarithm trapezoidal method.

[4] = test system: human biphenotypic B bone marrow mononuclear leukemia cell MV4-11 subcutaneous xenograft tumor; test: Inhibition of MV4-11 subcutaneous xenograft tumor in vivo; set-up: species or system nude mice; settings: for % Inhibition rate on day 14 / Average tumor volume Day 14: Oral, Once a day
Protocol: In this assay, the anti-tumor effect of the compounds was evaluated using a nude mice model of subcutaneous xenograft tumor of human biphenotypic B bone marrow mononuclear leukemia cell MV4-11.
Human biphenotypic B bone marrow mononuclear leukemia cell MV4-11 was cultured in vitro in suspension with a RPMI1640 medium supplemented with 10% fetal bovine serum, 100 U/mL penicillin and 100 μg/mL streptomycin in a 5% CO2 cell incubator at 37° C. Routine passaging was performed twice a week. Cells in the logarithmic growth phase were collected, counted and then used for inoculation.
0.2 mL (1×10^7) of MV4-11 cells (plus matrigel, with a volume ratio of 1:1) were inoculated subcutaneously on the right back of each mouse. The grouping and dosing were started when the average tumor volume reached about 140-200 mm^3.
The diameter of the tumor was measured with vernier calipers twice a week. The formula for calculating the tumor volume is: V=0.5a×b^2, where a and b represent the long and short diameters of the tumor, respectively.

[5] = Oral administration (2.5 mg/kg)

CCc1nc(C(N)=O)c(Nc2ccc(N3CCC4(CCN(C)CC4)CC3)c(C)c2)nc1NC1CCOCC1.O=C(O)C(F)(F)F gave an IC50 [1] of 0.42 nM, a Kd [2] of 2.3 nM and an AUC0-last ([3]; Injection (1 mg/kg)) of 604 nm·h. For the same compound, the Cl ([3]; Injection (1 mg/kg)) was 48.5 mL/min/kg, the T1/2 ([3]; Injection (1 mg/kg)) was 2.40 h and the Vdss ([3]; Injection (1 mg/kg)) was 8.63 L/kg. The Cmax [3, 5] was 60.5 nM, the F% [3, 5] was 37.3% and the T1/2 [3, 5] was 4.41 h. For the same compound, the Tmax [3, 5] was 4.00 h, the “% Inhibition rate on day 14” value ([4]; 1 mg/kg) was 66.1% and the “Average tumor volume Day 14” value ([4]; 1 mg/kg) was 375 mm^3. For the same compound, the “% Inhibition rate on day 14” value ([4]; 1.5 mg/kg) was 81.0%, the “Average tumor volume Day 14” value ([4]; 1.5 mg/kg) was 273 mm^3 and the “% Inhibition rate on day 14” value ([4]; 4.5 mg/kg) was 114.7%. The “Average tumor volume Day 14” value ([4]; 4.5 mg/kg) was 51 mm^3 and the “Average tumor volume Day 0” value ([4]; Day 0, one value for all groups, before dosing) was 149 mm^3.
